According to patent US12606561B2, “Substituted pyrazolo[1,5-a][1,3,5]triazines as CDK inhibitors” (QURIENT CO., LTD., priority 2018, dated 2026):

Experiments:
CDK1/Cyclin B = molecular target: T1, CDK1/Cyclin B (Homo sapiens, UniProt P06493); assay: Enzymatic assay for CDK1 (LANCE Ultra kinase assay, FRET based); type: biochemical; conditions: ATP at Km; read-out: CDK1 enzymatic activity IC50
T1 construct: purchased Invitrogen PR4768C
Method in brief: (§1)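 Inhibition of purified CDK/cyclin complexes was measured with ATP at its Km, using a ULight-labeled peptide substrate. Substrate phosphorylation was detected by FRET with a Europium-labeled anti-phospho-antibody.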

CDK2/Cyclin A = molecular target: T2, CDK2/Cyclin A (Homo sapiens, UniProt P24941); assay: Enzymatic assay for CDK2 (LANCE Ultra kinase assay, FRET based); type: biochemical; conditions: ATP at Km
T2 construct: purchased Invitrogen PV6290
Method in brief: (§2)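 TR-FRET kinase assay at ATP Km with ULight-MBP peptide (68 nM) and Eu-anti-phospho-MBP antibody; CDK2/Cyclin A at […], CDK5/p25 at […]. 8-dose 4-fold compound dilutions; 60 min kinase reaction at 23° C., EDTA stop, 60 min detection, read at 615/665 nm.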

CDK5/p25 = molecular target: T3, CDK5/p25 (Homo sapiens, UniProt Q00535); assay: Enzymatic assay for CDK5 (LANCE Ultra kinase assay, FRET based); type: biochemical; conditions: ATP at Km
T3 construct: purchased Invitrogen PR8543B
Method in brief: as §2

CDK7/Cyclin H/MNAT1 = molecular target: T4, CDK7/Cyclin H/MNAT1 (Homo sapiens, UniProt P50613); assay: Enzymatic assay for CDK7 (LANCE Ultra kinase assay, FRET based); type: biochemical; conditions: for IC50: ATP at Km
T4 construct: purchased Invitrogen PR6749B
Method in brief: as §1

A2780 = A2780 viability assay (CellTiter-Glo, 72 hours); type: cell-based; conditions: Homo sapiens; A2780 cells
Method in brief: (§3)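 Cells grown in RPMI-1640 with 10% FBS were seeded at 1×10^4/well (MV4-11), 5×10^3 (OVCAR-3) or 1×10^3 (A2780), then dosed 24 h later with compound at 0.0015 uM to 10 uM, DMSO <0.1%. Viability was read by CellTiter-Glo luminescence after 72 h at 37° C, in duplicate.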

OVCAR-3 = OVCAR-3 viability assay (CellTiter-Glo, 72 hours); type: cell-based; conditions: Homo sapiens; OVCAR-3 cells
Method in brief: as §3

T4 sequence (P50613 whole entry): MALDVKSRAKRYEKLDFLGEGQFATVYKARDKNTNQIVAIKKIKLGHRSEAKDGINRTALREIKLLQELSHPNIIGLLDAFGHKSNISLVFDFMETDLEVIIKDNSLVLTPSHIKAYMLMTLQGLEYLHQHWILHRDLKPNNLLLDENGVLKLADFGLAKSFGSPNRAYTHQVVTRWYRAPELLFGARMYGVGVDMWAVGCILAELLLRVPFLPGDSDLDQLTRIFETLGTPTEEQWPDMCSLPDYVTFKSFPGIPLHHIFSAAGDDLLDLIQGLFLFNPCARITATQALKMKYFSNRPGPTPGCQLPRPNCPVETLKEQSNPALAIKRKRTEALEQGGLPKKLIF
T4 sequence (P51946 whole entry partner): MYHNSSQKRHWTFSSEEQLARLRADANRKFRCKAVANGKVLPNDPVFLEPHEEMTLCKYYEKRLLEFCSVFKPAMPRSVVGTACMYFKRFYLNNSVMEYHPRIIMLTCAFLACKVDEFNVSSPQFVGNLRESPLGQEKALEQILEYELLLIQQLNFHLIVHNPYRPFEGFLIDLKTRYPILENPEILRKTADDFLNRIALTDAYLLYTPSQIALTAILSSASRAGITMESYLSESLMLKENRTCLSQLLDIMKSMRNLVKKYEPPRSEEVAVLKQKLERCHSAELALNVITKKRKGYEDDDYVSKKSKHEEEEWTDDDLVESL
T4 sequence (P51948 whole entry partner): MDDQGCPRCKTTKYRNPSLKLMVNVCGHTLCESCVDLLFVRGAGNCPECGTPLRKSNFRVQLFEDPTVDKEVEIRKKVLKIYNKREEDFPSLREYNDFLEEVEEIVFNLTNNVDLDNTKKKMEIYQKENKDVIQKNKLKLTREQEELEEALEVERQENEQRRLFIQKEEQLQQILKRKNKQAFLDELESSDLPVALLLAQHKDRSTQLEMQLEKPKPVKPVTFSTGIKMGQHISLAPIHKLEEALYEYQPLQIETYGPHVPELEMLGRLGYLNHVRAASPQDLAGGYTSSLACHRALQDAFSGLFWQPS
T3 sequence (Q00535 whole entry): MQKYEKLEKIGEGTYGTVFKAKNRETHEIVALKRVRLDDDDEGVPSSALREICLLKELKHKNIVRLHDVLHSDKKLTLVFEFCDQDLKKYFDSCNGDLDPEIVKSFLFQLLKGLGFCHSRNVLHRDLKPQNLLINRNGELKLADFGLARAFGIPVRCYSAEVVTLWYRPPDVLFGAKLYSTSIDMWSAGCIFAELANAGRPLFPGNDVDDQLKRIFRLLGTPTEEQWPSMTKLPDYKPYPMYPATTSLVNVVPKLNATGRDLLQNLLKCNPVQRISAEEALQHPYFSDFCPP
T3 sequence (Q15078 99-307 partner limits assumed): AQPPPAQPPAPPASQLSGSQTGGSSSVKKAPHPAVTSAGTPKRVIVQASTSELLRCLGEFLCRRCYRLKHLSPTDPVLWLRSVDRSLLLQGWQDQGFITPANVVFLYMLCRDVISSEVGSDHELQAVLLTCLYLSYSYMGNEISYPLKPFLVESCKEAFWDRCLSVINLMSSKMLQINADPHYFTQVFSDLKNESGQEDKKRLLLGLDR
T1 sequence (P06493 whole entry): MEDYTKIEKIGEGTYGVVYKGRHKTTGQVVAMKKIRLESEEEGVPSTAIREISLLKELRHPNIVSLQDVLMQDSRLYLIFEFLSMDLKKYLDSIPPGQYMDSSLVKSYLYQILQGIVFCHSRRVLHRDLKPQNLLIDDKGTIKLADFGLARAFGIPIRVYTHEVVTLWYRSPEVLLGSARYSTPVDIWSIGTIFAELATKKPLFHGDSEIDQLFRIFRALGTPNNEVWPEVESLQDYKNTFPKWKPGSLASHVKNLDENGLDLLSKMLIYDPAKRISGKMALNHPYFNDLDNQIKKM
T1 sequence (P14635 whole entry partner): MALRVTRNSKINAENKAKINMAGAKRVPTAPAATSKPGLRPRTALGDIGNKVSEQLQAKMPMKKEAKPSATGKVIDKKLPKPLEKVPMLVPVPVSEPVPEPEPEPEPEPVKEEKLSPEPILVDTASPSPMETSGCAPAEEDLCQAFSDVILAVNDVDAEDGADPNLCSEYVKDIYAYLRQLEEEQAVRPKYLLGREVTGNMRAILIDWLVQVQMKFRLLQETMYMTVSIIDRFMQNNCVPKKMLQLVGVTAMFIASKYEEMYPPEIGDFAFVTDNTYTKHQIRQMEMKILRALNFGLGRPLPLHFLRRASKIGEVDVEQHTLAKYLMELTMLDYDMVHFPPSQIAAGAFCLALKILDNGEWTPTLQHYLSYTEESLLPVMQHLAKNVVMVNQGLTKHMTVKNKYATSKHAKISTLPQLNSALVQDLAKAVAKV

## C=C(F)C(=O)Nc1ccc2c(-c3ccccc3CNc3nc(NC[C@@H]4CCNC[C@@H]4O)nc4c(C(C)C)cnn34)nccc2c1 [Compound 162]
CDK1/Cyclin B
  IC50: > 1000 nM
CDK2/Cyclin A
  IC50: > 1000 nM
CDK5/p25
  IC50: > 1000 nM
CDK7/Cyclin H/MNAT1
  IC50: < 100 nM
  CDK1/CDK7: Selectivity of CDK7 inhibition over CDK1 inhibition: A (A indicates [fold] > 500)
  CDK2/CDK7: Selectivity of CDK7 inhibition over CDK2 inhibition: A (A indicates [fold] > 500)
  CDK5/CDK7: Selectivity of CDK7 inhibition over CDK5 inhibition: A (A indicates [fold] > 500)
A2780
  IC50: < 1000 nM
OVCAR-3
  IC50: 1000 to 10000 nM

## C=C(F)C(=O)Nc1ccc2c(-c3ccccc3CNc3nc(N[C@@H]4CC[C@@H](C)NC4)nc4c(C(C)C)cnn34)nccc2c1 [Compound 163]
CDK1/Cyclin B
  IC50: > 1000 nM
CDK2/Cyclin A
  IC50: > 1000 nM
CDK5/p25
  IC50: > 1000 nM
CDK7/Cyclin H/MNAT1
  IC50: < 100 nM
  CDK1/CDK7: Selectivity of CDK7 inhibition over CDK1 inhibition: A (A indicates [fold] > 500)
  CDK2/CDK7: Selectivity of CDK7 inhibition over CDK2 inhibition: A (A indicates [fold] > 500)
  CDK5/CDK7: Selectivity of CDK7 inhibition over CDK5 inhibition: A (A indicates [fold] > 500)
A2780
  IC50: < 1000 nM
OVCAR-3
  IC50: < 1000 nM

## C=C(F)C(=O)Nc1ccc2c(-c3ccccc3CNc3nc(NC[C@H]4CCN(C)C[C@@H]4O)nc4c(C(C)C)cnn34)nccc2c1 [Compound 164]
CDK1/Cyclin B
  IC50: > 1000 nM
CDK2/Cyclin A
  IC50: > 1000 nM
CDK5/p25
  IC50: > 1000 nM
CDK7/Cyclin H/MNAT1
  IC50: < 100 nM
  CDK1/CDK7: Selectivity of CDK7 inhibition over CDK1 inhibition: A (A indicates [fold] > 500)
  CDK2/CDK7: Selectivity of CDK7 inhibition over CDK2 inhibition: A (A indicates [fold] > 500)
  CDK5/CDK7: Selectivity of CDK7 inhibition over CDK5 inhibition: A (A indicates [fold] > 500)
A2780
  IC50: < 1000 nM
OVCAR-3
  IC50: < 1000 nM

## C=C(F)C(=O)Nc1ccc2c(-c3ccccc3CNc3nc(N4CO[C@H]5CN(C)CC[C@@H]5C4)nc4c(C(C)C)cnn34)nccc2c1 [Compound 165]
CDK1/Cyclin B
  IC50: > 1000 nM
CDK2/Cyclin A
  IC50: > 1000 nM
CDK5/p25
  IC50: > 1000 nM
CDK7/Cyclin H/MNAT1
  IC50: 100 to 1000 nM
  CDK1/CDK7: Selectivity of CDK7 inhibition over CDK1 inhibition: B (B indicates 50 < [fold] ≤ 500)
  CDK2/CDK7: Selectivity of CDK7 inhibition over CDK2 inhibition: B (B indicates 50 < [fold] ≤ 500)
  CDK5/CDK7: Selectivity of CDK7 inhibition over CDK5 inhibition: B (B indicates 50 < [fold] ≤ 500)
A2780
  IC50: < 1000 nM
OVCAR-3
  IC50: < 1000 nM

## C=C(F)C(=O)Nc1ccc2c(-c3ccccc3CNc3nc(N[C@@H]4CCCNC4)nc4c(C(C)C)cnn34)nccc2c1 [Compound 166]
CDK1/Cyclin B
  IC50: > 1000 nM
CDK2/Cyclin A
  IC50: > 1000 nM
CDK5/p25
  IC50: > 1000 nM
CDK7/Cyclin H/MNAT1
  IC50: < 100 nM
  CDK1/CDK7: Selectivity of CDK7 inhibition over CDK1 inhibition: A (A indicates [fold] > 500)
  CDK2/CDK7: Selectivity of CDK7 inhibition over CDK2 inhibition: A (A indicates [fold] > 500)
  CDK5/CDK7: Selectivity of CDK7 inhibition over CDK5 inhibition: A (A indicates [fold] > 500)
A2780
  IC50: < 1000 nM
OVCAR-3
  IC50: > 10000 nM

## Cc1nc(NCc2ccccc2-c2nccc3cc(NC(=O)/C=C/CN(C)C)ccc23)n2ncc(C(C)C)c2n1 [Compound 167]
CDK1/Cyclin B
  IC50: > 1000 nM
CDK2/Cyclin A
  IC50: > 1000 nM
CDK5/p25
  IC50: > 1000 nM
CDK7/Cyclin H/MNAT1
  IC50: 100 to 1000 nM
  CDK1/CDK7: Selectivity of CDK7 inhibition over CDK1 inhibition: B (B indicates 50 < [fold] ≤ 500)
  CDK2/CDK7: Selectivity of CDK7 inhibition over CDK2 inhibition: B (B indicates 50 < [fold] ≤ 500)
  CDK5/CDK7: Selectivity of CDK7 inhibition over CDK5 inhibition: B (B indicates 50 < [fold] ≤ 500)
A2780
  IC50: < 1000 nM
OVCAR-3
  IC50: < 1000 nM

## C=C(F)C(=O)Nc1ccc2c(-c3ccccc3CNc3nc(NC[C@H]4CCN(C(C)C)C[C@@H]4O)nc4c(C(C)C)cnn34)nccc2c1 [Compound 168]
CDK1/Cyclin B
  IC50: > 1000 nM
CDK2/Cyclin A
  IC50: > 1000 nM
CDK5/p25
  IC50: > 1000 nM
CDK7/Cyclin H/MNAT1
  IC50: < 100 nM
  CDK1/CDK7: Selectivity of CDK7 inhibition over CDK1 inhibition: B (B indicates 50 < [fold] ≤ 500)
  CDK2/CDK7: Selectivity of CDK7 inhibition over CDK2 inhibition: B (B indicates 50 < [fold] ≤ 500)
  CDK5/CDK7: Selectivity of CDK7 inhibition over CDK5 inhibition: B (B indicates 50 < [fold] ≤ 500)
A2780
  IC50: < 1000 nM
OVCAR-3
  IC50: < 1000 nM

## C=C(F)C(=O)Nc1ccc2c(-c3ccccc3CNc3nc(NC[C@H]4CCN(CC)C[C@@H]4O)nc4c(C(C)C)cnn34)nccc2c1 [Compound 169]
CDK1/Cyclin B
  IC50: > 1000 nM
CDK2/Cyclin A
  IC50: > 1000 nM
CDK5/p25
  IC50: > 1000 nM
CDK7/Cyclin H/MNAT1
  IC50: < 100 nM
  CDK1/CDK7: Selectivity of CDK7 inhibition over CDK1 inhibition: B (B indicates 50 < [fold] ≤ 500)
  CDK2/CDK7: Selectivity of CDK7 inhibition over CDK2 inhibition: B (B indicates 50 < [fold] ≤ 500)
  CDK5/CDK7: Selectivity of CDK7 inhibition over CDK5 inhibition: B (B indicates 50 < [fold] ≤ 500)
A2780
  IC50: < 1000 nM
OVCAR-3
  IC50: < 1000 nM

## C=C(F)C(=O)Nc1ccc2c(-c3ccccc3CNc3nc(N4CCc5ncccc5C4)nc4c(C(C)C)cnn34)nccc2c1 [Compound 170]
CDK1/Cyclin B
  IC50: > 1000 nM
CDK2/Cyclin A
  IC50: > 1000 nM
CDK5/p25
  IC50: > 1000 nM
CDK7/Cyclin H/MNAT1
  IC50: 100 to 1000 nM
  CDK1/CDK7: Selectivity of CDK7 inhibition over CDK1 inhibition: B (B indicates 50 < [fold] ≤ 500)
  CDK2/CDK7: Selectivity of CDK7 inhibition over CDK2 inhibition: B (B indicates 50 < [fold] ≤ 500)
  CDK5/CDK7: Selectivity of CDK7 inhibition over CDK5 inhibition: B (B indicates 50 < [fold] ≤ 500)
A2780
  IC50: < 1000 nM
OVCAR-3
  IC50: 1000 to 10000 nM

## C=C(F)C(=O)Nc1ccc2c(-c3ccccc3CNc3nc(N[C@H]4CCC(C)(C)NC4)nc4c(C(C)C)cnn34)nccc2c1 [Compound 171]
CDK1/Cyclin B
  IC50: > 1000 nM
CDK2/Cyclin A
  IC50: > 1000 nM
CDK5/p25
  IC50: > 1000 nM
CDK7/Cyclin H/MNAT1
  IC50: < 100 nM
  CDK1/CDK7: Selectivity of CDK7 inhibition over CDK1 inhibition: A (A indicates [fold] > 500)
  CDK2/CDK7: Selectivity of CDK7 inhibition over CDK2 inhibition: A (A indicates [fold] > 500)
  CDK5/CDK7: Selectivity of CDK7 inhibition over CDK5 inhibition: A (A indicates [fold] > 500)
A2780
  IC50: < 1000 nM
OVCAR-3
  IC50: < 1000 nM

## C=C(F)C(=O)Nc1ccc2c(-c3ccccc3CNc3nc(NC4CCCNC4)nc4c(C(C)C)cnn34)nccc2c1 (stereo not drawn) [Compound 172]
CDK1/Cyclin B
  IC50: > 1000 nM
CDK2/Cyclin A
  IC50: > 1000 nM
CDK5/p25
  IC50: > 1000 nM
CDK7/Cyclin H/MNAT1
  IC50: < 100 nM
  CDK1/CDK7: Selectivity of CDK7 inhibition over CDK1 inhibition: A (A indicates [fold] > 500)
  CDK2/CDK7: Selectivity of CDK7 inhibition over CDK2 inhibition: A (A indicates [fold] > 500)
  CDK5/CDK7: Selectivity of CDK7 inhibition over CDK5 inhibition: A (A indicates [fold] > 500)
A2780
  IC50: < 1000 nM
OVCAR-3
  IC50: < 1000 nM

## C=C(F)C(=O)Nc1ccc2c(-c3ccccc3CNc3nc(N[C@@H]4CCCN(C)C4)nc4c(C(C)C)cnn34)nccc2c1 [Compound 173]
CDK1/Cyclin B
  IC50: > 1000 nM
CDK2/Cyclin A
  IC50: > 1000 nM
CDK5/p25
  IC50: > 1000 nM
CDK7/Cyclin H/MNAT1
  IC50: < 100 nM
  CDK1/CDK7: Selectivity of CDK7 inhibition over CDK1 inhibition: A (A indicates [fold] > 500)
  CDK2/CDK7: Selectivity of CDK7 inhibition over CDK2 inhibition: A (A indicates [fold] > 500)
  CDK5/CDK7: Selectivity of CDK7 inhibition over CDK5 inhibition: A (A indicates [fold] > 500)
A2780
  IC50: < 1000 nM
OVCAR-3
  IC50: < 1000 nM

## C=C(F)C(=O)Nc1ccc2c(-c3ccccc3CNc3nc(N[C@@H]4CCC(C)(C)NC4)nc4c(C(C)C)cnn34)nccc2c1 [Compound 174]
CDK1/Cyclin B
  IC50: > 1000 nM
CDK2/Cyclin A
  IC50: > 1000 nM
CDK5/p25
  IC50: > 1000 nM
CDK7/Cyclin H/MNAT1
  IC50: < 100 nM
  CDK1/CDK7: Selectivity of CDK7 inhibition over CDK1 inhibition: A (A indicates [fold] > 500)
  CDK2/CDK7: Selectivity of CDK7 inhibition over CDK2 inhibition: A (A indicates [fold] > 500)
  CDK5/CDK7: Selectivity of CDK7 inhibition over CDK5 inhibition: A (A indicates [fold] > 500)
A2780
  IC50: < 1000 nM
OVCAR-3
  IC50: < 1000 nM

## C=C(F)C(=O)Nc1ccc2c(-c3ccccc3CNc3nc(NC4CCC(C)(C)NC4)nc4c(C(C)C)cnn34)nccc2c1 (stereo not drawn) [Compound 175]
CDK1/Cyclin B
  IC50: > 1000 nM
CDK2/Cyclin A
  IC50: > 1000 nM
CDK5/p25
  IC50: > 1000 nM
CDK7/Cyclin H/MNAT1
  IC50: < 100 nM
  CDK1/CDK7: Selectivity of CDK7 inhibition over CDK1 inhibition: A (A indicates [fold] > 500)
  CDK2/CDK7: Selectivity of CDK7 inhibition over CDK2 inhibition: A (A indicates [fold] > 500)
  CDK5/CDK7: Selectivity of CDK7 inhibition over CDK5 inhibition: A (A indicates [fold] > 500)
A2780
  IC50: < 1000 nM
OVCAR-3
  IC50: < 1000 nM
